Measured values taken from patent US20240165150A1, “COMBINATION FOR TREATMENT OF THROMBOINFLAMMATION” (TX MEDIC AB, priority 2021, published 2024).

Experiments:
Type in all cases: cell-based
[1] = tested on: human whole blood; experiment: Hematology analysis (cell counts) in IBMIR blood loop system; settings: WI-38 cells 1 × 10^5/2 ml, 1 hour, IBsolvMIR 0.2 mg/ml, heparin 0, 0.2 or 0.5 U/ml
Method: (§1) Materials and Methods Dextran sulfate (IBsolvMIR®, Tikomed AB, Viken, Sweden, WO 2016/076780), heparin (Heparin LEO®, LEO Pharma, cat. No. 585679) and WI-38 cells (American Type Culture Collection (ATCC)) were administered to blood loops as shown in Table 1. Vehicle was an aqueous 0.9% NaCl solution. Each loop contained in total 2 ml of freshly taken human whole blood from three blood donors. Reagents were added to the loops according to Table 1 and the loops were set to rotate at 37° C. Blood samples were taken at the zero, 15 min, 1 hour and 4 hour time points.
Blood samples were extracted from loops at the zero and 1 hour time points and platelets, red blood cells and white blood cells were automatically counted using a Sysmex XN-L 350 Hematology Analyzer.

[2] = tested on: human whole blood; experiment: Coagulation (blood clot size) and hemolysis in IBMIR blood loop system
Method: as §1
Clot scale: 1=Small clot observed (<2 mm), 2=Medium-sized clot observed (2-5 mm), 3=Large clot observed (>5 mm), * Clot removed from loop (not noted at 4 h when all blood was removed from loop), n.s.=no sample. Hemolysis: +=hemolysis observed in blood loop.

[3] = tested on: human whole blood; experiment: Cytokine analysis by electrochemiluminescence in blood loop system
Method: as §1
Blood was extracted from loops at the zero and 4 hour time points and cytokines were analyzed by electrochemiluminescence (ECL) in multiplex mode using MESO QuickPlex SQ 120 (Mesoscale Discovery).

[4] = tested on: human whole blood; experiment: Flow cytometry analysis of blood from blood loops; settings: 1 hour
Method: as §1
Fresh blood was collected and immediately mixed with ethylenediaminetetraacetic acid (EDTA) (zero time point samples) or added to loops followed by sampling and mixing with EDTA at the 1 hour time point. Data was analyzed using flow cytometry.

[5] = tested on: human whole blood; experiment: Complement split products C3a and C5a by ELISA in blood loop system
Method: as §1
Complement analysis Complement split product C3a and C5a concentrations were measured by ELISA according to the manufacturer's instructions (RayBio® Human C3a and C5a ELISA Kit for serum, plasma, and cell culture supernatants by RayBiotech) at the zero, 15 min and 1 hour time points.

[6] = WI-38-treated loops, three donors
[7] = agent alone, WI-38 cells, listed as Dextran sulfate
[8] = vs corresponding WI-38 treated without IBsolvMIR
[9] = vehicle at 0.5 U/ml heparin, donors D2 and D3, 4 hour
[10] = heparin 0.2 or 0.5 U/ml combined with IBsolvMIR 0.2 mg/ml, WI-38 cells

Dextran sulfate [IBsolvMIR®] was tested, and the “WBC counts (WI-38 induced decrease)” value [1] was “completely rescued the WBC decrease”, the “WBC counts (WI-38 induced decrease)” value ([1]; listed as dextran sulfate) was “capable of restoring WBC counts” and the “Clotting, loops without WI-38 cells” value ([2]; IBsolvMIR alone loops, all donors, 15 min to 4 hours) was “No clotting was observed”. The “Clotting at 15 minutes” value [2, 6] was “no clotting was observed”, the “Clotting at one hour” value [2, 6] was “medium-sized clots were observed in two WI-38+IBsolvMIR® loops” and the IL-6 cytokine release ([3]; 4 hour time point) was “ambiguous”. For the same substance, the MCP-1 levels ([3]; IBsolvMIR alone groups vs corresponding vehicle, 4 hour) was “higher than corresponding vehicle”, the MCP-1 levels ([3]; WI-38 cells with IBsolvMIR vs corresponding WI-38 alone group, 4 hour) was “slightly increased levels of MCP-1” and the IL-8 release ([3]; vehicle and WI-38 cell-induced, 4 hour) was “clear IBsolvMIR® dependent reduction”. For the same substance, the “Activation of granulocytes (CD66b+)” value ([4]; WI-38 cells) was “overall decreased activation profile”, the “Activation of monocytes (CD14+)” value ([4]; WI-38 cells) was “overall decreased activation profile” and the “Aggregation of platelets (decrease in proportion of single platelets)” value ([4]; WI-38 cells) was “entirely revoked”. The “B cell count (WI-38 dependent decrease)” value ([4]; WI-38 cells) was “entirely reversed up to vehicle level”, the Frequency of granulocytes ([4]; WI-38 cells) was “increased frequency” and the Frequency of monocytes ([4]; WI-38 cells) was “increased frequency”. The “TF positive cell counts” value ([4]; WI-38 treated groups with vs without IBsolvMIR) was “about ten-fold”, the “C5b-9 formation on platelets (proportion of C5b-9 positive platelets)” value (from here on “C5b-9 formation on platelets”) ([4]; agent alone, WI-38 cells) was “partly reverted” and the “Platelet binding to WI-38 cells (cell transplant)” value (shortened to “Platelet binding to WI-38 cells”) ([4]; agent alone, WI-38 cells) was “partly reverted”. For the same substance, the “Proportion of platelets bound to granulocytes” value ([4]; agent alone, WI-38 cells) was “capable of reducing”, the “Proportion of platelets bound to monocytes” value ([4]; agent alone, WI-38 cells) was “capable of reducing” and the “C5b-9 formation on platelets” value [4, 7] was “capable of reducing”. The “Platelet binding to WI-38 cells” value [4, 7] was “capable of reducing”, the “Complement activation (C5b-9) on TF positive cells” value ([4]; vs WI-38 alone) was “lower” and the “Frequency of apoptotic (annexin +) TF+ cells” value [4, 8] was “lower”. The “Frequency of dead (annexin + and/or viability dye +) TF+ cells” value [4, 8] was “lower”, the “C3a increase in WI-38 treated groups” value ([5]; 15 min time point) was “entirely blocked” and the “C5a vs corresponding treatment without IBsolvMIR” value ([5]; 1 hour time point) was “lower in almost every donor in every group”. For the same substance, the “C3a vs corresponding treatment without IBsolvMIR” value ([5]; no heparin, 0.2 and 0.5 U/ml heparin, with and without WI-38 cells, 15 min and 1 hour) was “decreased C3a”.

In the case of heparin [reference compound], the “WBC counts (WI-38 induced decrease)” value [1] is reported as “does not affect WBC counts”, the IL-6 response [3, 9] is reported as > 100 fold and the TNF-α release [3, 9] is reported as “dramatic elevated vehicle response”. For the same substance, the “C5b-9 formation on platelets” value ([4]; agent alone, WI-38 cells) was “did not have any effects”, the “Platelet binding to WI-38 cells” value ([4]; agent alone, WI-38 cells) was “did not have any effect at all” and the “Proportion of platelets bound to granulocytes” value ([4]; agent alone, WI-38 cells) was “did not have any effect at all”. For the same substance, the “Proportion of platelets bound to monocytes” value ([4]; agent alone, WI-38 cells) was “did not have any effect at all”, the “C5b-9 formation on platelets” value [4, 10] was “clear concentration-dependent effect” and the “Platelet binding to WI-38 cells” value [4, 10] was “potentiated the effects of IBsolvMIR®”. For the same substance, the “C5b-9 formation on platelets” value ([4]; heparin 0.2 or 0.5 U/ml combined with IBsolvMIR 0.2 mg/ml, WI-38 cells, listed as Heparin) was “potentiated the effects of IBsolvMIR®”.
